Test results published in patent publication US20240208968A1, “ALPHA V BETA 6 AND ALPHA V BETA 1 INTEGRIN INHIBITORS AND USES THEREOF” (DiCE Molecules SV, Inc., priority 2021, published 2024).
Where a name gives a salt, the structure may show the parent alone.

Legend:
[1] = molecular target: αvβ6 (Homo sapiens, UniProt P06756+P18564); assay: Solid Phase Integrin αvβ6 Assay; type: binding
Summary of the method: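 Plates coated with 1 μg/mL recombinant TGFb1-LAP; compounds and αvβ6 (0.2 μg/mL diluted stock) incubated 1 h at room temperature in 2% BSA/TBST with 1 mM MnCl2. Bound integrin detected with streptavidin-HRP and TMB; IC50 from four-parameter logistic fits.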

[2] = molecular target: αvβ1 (Homo sapiens, UniProt P05556+P06756); assay: Solid Phase Integrin αvβ1 Assay; type: binding
Summary of the method: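 Wells coated with 1 µg/mL recombinant TGFb1-LAP and blocked with 2% BSA/TBST, 1 mM MnCl2; αvβ1 (added at 0.2 µg/mL) and compound incubated 90 min at room temperature. Bound integrin detected by streptavidin-HRP (20 min) and TMB after Mn-containing washes; IC50 by four-parameter logistic fit.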

Chain of αvβ6 (P06756 31-992 limits assumed): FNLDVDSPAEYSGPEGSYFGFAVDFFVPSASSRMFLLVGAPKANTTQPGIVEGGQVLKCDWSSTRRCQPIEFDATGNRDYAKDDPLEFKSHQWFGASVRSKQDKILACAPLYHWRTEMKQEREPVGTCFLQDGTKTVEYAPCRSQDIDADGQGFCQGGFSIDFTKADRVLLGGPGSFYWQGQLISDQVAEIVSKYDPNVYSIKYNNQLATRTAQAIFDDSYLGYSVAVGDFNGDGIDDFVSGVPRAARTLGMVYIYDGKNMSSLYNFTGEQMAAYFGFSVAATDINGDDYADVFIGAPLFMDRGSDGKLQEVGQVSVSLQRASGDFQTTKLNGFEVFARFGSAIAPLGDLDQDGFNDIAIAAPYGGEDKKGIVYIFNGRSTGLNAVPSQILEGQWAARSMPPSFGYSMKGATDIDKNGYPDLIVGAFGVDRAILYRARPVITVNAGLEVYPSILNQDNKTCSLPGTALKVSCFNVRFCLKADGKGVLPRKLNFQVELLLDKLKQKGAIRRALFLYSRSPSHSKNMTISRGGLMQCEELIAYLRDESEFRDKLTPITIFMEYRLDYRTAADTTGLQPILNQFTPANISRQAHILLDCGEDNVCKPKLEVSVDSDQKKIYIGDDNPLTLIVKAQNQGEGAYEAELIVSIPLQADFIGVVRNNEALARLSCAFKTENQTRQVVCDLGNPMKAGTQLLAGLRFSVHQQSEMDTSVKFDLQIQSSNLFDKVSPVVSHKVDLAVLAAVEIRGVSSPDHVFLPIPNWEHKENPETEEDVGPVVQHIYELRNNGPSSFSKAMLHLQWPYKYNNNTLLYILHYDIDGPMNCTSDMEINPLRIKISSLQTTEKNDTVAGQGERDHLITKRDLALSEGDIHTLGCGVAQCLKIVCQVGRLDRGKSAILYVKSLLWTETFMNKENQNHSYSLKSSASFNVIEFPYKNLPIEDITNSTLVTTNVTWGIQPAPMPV
Chain of αvβ6 (P18564 22-707 limits assumed): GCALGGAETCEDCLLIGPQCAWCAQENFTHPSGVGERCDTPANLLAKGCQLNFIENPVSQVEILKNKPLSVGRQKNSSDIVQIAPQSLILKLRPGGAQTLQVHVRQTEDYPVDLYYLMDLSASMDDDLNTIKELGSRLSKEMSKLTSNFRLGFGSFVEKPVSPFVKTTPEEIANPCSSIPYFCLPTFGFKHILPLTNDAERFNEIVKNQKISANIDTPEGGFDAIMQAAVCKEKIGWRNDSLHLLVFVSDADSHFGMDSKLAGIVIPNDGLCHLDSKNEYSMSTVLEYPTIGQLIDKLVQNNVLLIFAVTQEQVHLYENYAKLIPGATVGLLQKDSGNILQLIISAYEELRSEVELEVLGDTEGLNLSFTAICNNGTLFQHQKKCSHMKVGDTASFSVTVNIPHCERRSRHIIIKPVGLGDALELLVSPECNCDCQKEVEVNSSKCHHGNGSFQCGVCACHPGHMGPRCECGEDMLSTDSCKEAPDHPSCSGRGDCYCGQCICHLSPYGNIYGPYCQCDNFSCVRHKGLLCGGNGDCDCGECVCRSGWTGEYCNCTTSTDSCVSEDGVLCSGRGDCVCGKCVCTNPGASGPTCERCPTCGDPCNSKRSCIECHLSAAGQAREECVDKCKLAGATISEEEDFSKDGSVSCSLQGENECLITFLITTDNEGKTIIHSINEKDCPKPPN
Chain of αvβ1 (P06756 31-992 limits assumed): as the sequence (P06756 31-992 limits assumed) above
Chain of αvβ1 (P05556 21-728 limits assumed): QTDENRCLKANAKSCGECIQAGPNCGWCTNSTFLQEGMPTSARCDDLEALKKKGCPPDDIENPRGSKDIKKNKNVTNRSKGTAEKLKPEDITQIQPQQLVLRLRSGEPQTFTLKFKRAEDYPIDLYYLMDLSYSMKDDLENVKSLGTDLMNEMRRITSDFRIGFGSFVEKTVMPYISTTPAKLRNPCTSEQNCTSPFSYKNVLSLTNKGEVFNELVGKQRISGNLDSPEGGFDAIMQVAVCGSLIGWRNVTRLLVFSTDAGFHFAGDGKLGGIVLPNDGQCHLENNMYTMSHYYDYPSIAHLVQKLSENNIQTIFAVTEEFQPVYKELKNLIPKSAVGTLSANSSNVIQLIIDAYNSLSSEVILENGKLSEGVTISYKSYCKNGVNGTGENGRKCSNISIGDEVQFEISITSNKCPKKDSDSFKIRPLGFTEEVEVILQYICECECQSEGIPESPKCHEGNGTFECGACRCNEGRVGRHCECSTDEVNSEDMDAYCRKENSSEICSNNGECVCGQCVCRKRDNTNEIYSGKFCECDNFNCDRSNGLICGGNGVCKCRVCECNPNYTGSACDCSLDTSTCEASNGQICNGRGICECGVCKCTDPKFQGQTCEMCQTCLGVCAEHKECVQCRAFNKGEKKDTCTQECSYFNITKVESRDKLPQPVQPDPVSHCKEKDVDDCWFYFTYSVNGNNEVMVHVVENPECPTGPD

| Compound | IC50 [1] [nM] | IC50 [2] [nM] |
| --- | --- | --- |
| O=C(O)C[C@H](NC(=O)[C@@H]1CCCN(CCCc2ccc3c(n2)NCCC3)C1)c1cccc(N2CC3CCC2CO3)c1 (single isomer, unassigned) [Compound 241-B] | < 100 | < 100 |
| CC1(C)CCN(c2cccc([C@H](CC(=O)O)NC(=O)[C@@H]3CCCN(CCCc4ccc5c(n4)NCCC5)C3)c2)CC1 [Compound 237, (S)-3-(3-(4,4-dimethylpiperidin-1-yl)phenyl)-3-((R)-1-(3-(5,6,7,8-tetrahydro-1,8-naphthyridin-2-yl)propyl)piperidine-3-carboxamido)propanoic acid] | < 100 | < 100 |
| O=C(O)C[C@H](NC(=O)[C@@H]1CCCN(CCCCc2ccc3c(n2)NCCC3)C1)c1ccccc1 [Compound 288, (S)-3-phenyl-3-((R)-1-(4-(5,6,7,8-tetrahydro-1,8-naphthyridin-2-yl)butyl)piperidine-3-carboxamido)propanoic acid hydrochloride] | < 100 | 100 to 1000 |
| O=C(O)C[C@@H](O[C@@H]1CCCN(CCCc2ccc3c(n2)NCCC3)C1)c1ccccc1 [Compound 351] | > 1000 | > 1000 |
| O=C(O)[C@H](CCO[C@@H]1CCCN(CCCCc2ccc3c(n2)NCCC3)C1)Nc1ncnc2ccccc12 [Compound 385] | 100 to 1000 | > 1000 |
| O=C(NC[C@@H](C(=O)O)c1cccc2c1cnn2CC1CC1)[C@@H]1CCCN(CCCc2ccc3c(n2)NCCC3)C1 [Compound 314] | 100 to 1000 | 100 to 1000 |
| O=C(O)[C@@H](CCO[C@@H]1CCCN(CCCCc2ccc3c(n2)NCCC3)C1)NC(=O)C12CCC(CC1)CC2 [Compound 384] | > 1000 | > 1000 |
| O=C(O)C[C@H](NC(=O)[C@@H]1CCCN(CCCc2ccc3c(n2)NCCC3)C1)c1ccc2ccccc2c1 [Compound 207, (S)-3-(naphthalen-2-yl)-3-((R)-1-(3-(5,6,7,8-tetrahydro-1,8-naphthyridin-2-yl)propyl)piperidine-3-carboxamido)propanoic acid hydrochloride] | 100 to 1000 | 100 to 1000 |
| O=C(O)CC(CO[C@@H]1CCCN(Cc2ccc3c(n2)NCCC3)C1)c1ccccc1 (some centres unmarked) [Compound 336] | 100 to 1000 | > 1000 |
| O=C(O)[C@H](CCO[C@@H]1CCCN(CCc2ccc3c(n2)NCCC3)C1)Nc1ncnc2ccccc12 [Compound 386] | > 1000 | > 1000 |
| CN(C[C@@H](CC(=O)O)c1ccccc1)[C@@H]1CCCN(CCCc2ccc3c(n2)NCCC3)C1 [Compound 296, (S)-4-(methyl((R)-1-(3-(5,6,7,8-tetrahydro-1,8-naphthyridin-2-yl)propyl)piperidin-3-yl)amino)-3-phenylbutanoic acid] | > 1000 | 100 to 1000 |
| C[C@H]1C[C@H](C(=O)N[C@@H](CC(=O)O)c2ccccc2)CN(CCCc2ccc3c(n2)NCCC3)C1 [Compound 380] | < 100 | 100 to 1000 |
| O=C(N[C@@H](CNC(=O)[C@@H]1CCCN(CCCc2ccc3c(n2)NCCC3)C1)C(=O)O)C1CC2CCC1CC2 (some centres unmarked) [Compound 338] | < 100 | < 100 |
| O=C(O)C[C@H](NC(=O)[C@@H]1CCCN(CCCc2ccc3c(n2)NCCC3)C1)c1cccc(-c2ccccc2)c1 [Compound 240, (S)-3-([1,1′-biphenyl]-3-yl)-3-((R)-1-(3-(5,6,7,8-tetrahydro-1,8-naphthyridin-2-yl)propyl)piperidine-3-carboxamido)propanoic acid hydrochloride] | < 100 | < 100 |
| O=C(NC[C@H](Nc1ncnc2cc(C(F)(F)F)ccc12)C(=O)O)[C@@H]1CCCN(CCCc2ccc3c(n2)NCCC3)C1 [Compound 282, (S)-3-((R)-1-(3-(5,6,7,8-tetrahydro-1,8-naphthyridin-2-yl)propyl)piperidine-3-carboxamido)-2-((7-(trifluoromethyl)quinazolin-4-yl)amino)propanoic acid hydrochloride] | < 100 | < 100 |

Next, values leading:

| IC50 [1] [nM] | IC50 [2] [nM] | Compound |
| --- | --- | --- |
| 100 to 1000 | 100 to 1000 | C[C@H]1C[C@H](C(=O)NC[C@@H](C(=O)O)c2cccc(-c3ccccc3)c2)CN(CCCc2ccc3c(n2)NCCC3)C1 [Compound 644] |
| < 100 | < 100 | CC1(C)CN(c2cccc([C@H](CC(=O)O)NC(=O)[C@@H]3CCCN(CCCc4ccc5c(n4)NCCC5)C3)c2)CC(C)(C)C1 [Compound 587] |
| < 100 | 100 to 1000 | C[C@@H]1CCN(CCCc2ccc3c(n2)NCCC3)C[C@@H]1C(=O)N[C@@H](CC(=O)O)c1ccccc1 [Compound 551] |
| < 100 | < 100 | Cc1cc(C(F)(F)F)nn1-c1cccc([C@@H](CO[C@@H]2CCCN(CCCc3ccc4c(n3)NCCC4)C2)CC(=O)O)c1 [Compound 576] |
| > 1000 | > 1000 | O=C(O)C[C@H](CC(=O)N[C@@H]1CCN(C(=O)CCCc2ccc3c(n2)NCCC3)C1)c1ccccc1 [Compound 416] |
| < 100 | < 100 | C[C@@H]1CN(c2cccc([C@H](CC(=O)O)NC(=O)[C@@H]3CCCN(CCCc4ccc5c(n4)NCCC5)C3)c2)C[C@@H](C)O1 [Compound 618] |
| < 100 | < 100 | O=C(NC[C@@H](Nc1ccccc1C1CC(F)(F)C1)C(=O)O)[C@@H]1CCCN(CCCc2ccc3c(n2)NCCC3)C1 [Compound 588] |
| < 100 | > 1000 | O=C(O)[C@H](CCO[C@@H]1CCCN(CCCc2ccc3c(n2)NCCC3)C1)c1ccc(F)c(-c2ccccc2)c1 [Compound 499] |
| 100 to 1000 | > 1000 | C[C@H]1CC[C@@H](C(=O)N[C@@H](CC(=O)O)c2ccccc2)CN1CCCc1ccc2c(n1)NCCC2 [Compound 554] |
| < 100 | < 100 | Cc1csc2ncnc(N[C@H](CCO[C@@H]3CCCN(CCCc4ccc5c(n4)NCCC5)C3)C(=O)O)c12 [Compound 502] |
| < 100 | < 100 | O=C(N[C@@H](CCO[C@@H]1CCCN(CCCc2ccc3c(n2)NCCC3)C1)C(=O)O)c1c(F)cccc1F [Compound 468] |
| > 1000 | > 1000 | O=C(CC[C@H](C(=O)O)c1ccccc1)N[C@H]1CCN(CCCCc2ccc3c(n2)NCCC3)C1 [Compound 424] |
| < 100 | < 100 | CN1CCc2ccc(S(=O)(=O)N[C@@H](CNC(=O)[C@@H]3CCCN(CCCc4ccc5c(n4)NCCC5)C3)C(=O)O)cc21 [Compound 448] |
| < 100 | < 100 | Cc1cc([C@@H](CO[C@@H]2CCCN(CCCc3ccc4c(n3)NCCC4)C2)CC(=O)O)cc(N2CCOC(C)(C)C2)c1 [Compound 579] |
| > 1000 | > 1000 | O=C(O)C[C@H](NC[C@@H]1CCCN(CCCc2ccc3c(n2)NCCC3)C1)c1cccc(Br)c1 [Compound 531] |
| > 1000 | 100 to 1000 | O=C(NC[C@@H](C(=O)O)c1cccc2cn([C@H]3CCC(F)(F)C3)nc12)[C@@H]1CCCN(CCCc2ccc3c(n2)NCCC3)C1 [Compound 624] |
| < 100 | < 100 | O=C(O)C[C@H](CO[C@@H]1CCCN(CCCc2ccc3c(n2)NCCC3)C1)c1cc(C2CC2)ccc1F [Compound 481] |
| 100 to 1000 | > 1000 | O=C(NC[C@@H](C(=O)O)c1cccc(-c2ccccc2C(F)(F)F)c1)[C@@H]1CCCN(CCCc2ccc3c(n2)NCCC3)C1 [Compound 625] |
| < 100 | 100 to 1000 | C[C@@H]1C[C@H](C(=O)NC[C@H](C(=O)O)c2cccc(-c3ccccc3)c2)CN(CCCc2ccc3c(n2)NCCC3)C1 [Compound 637] |
